Test results published in PMC6982547 (Leukemia & lymphoma, 2019).
Read-outs that look alike come from different tables or passages of the source.

Assays:
[1] = cited from earlier work
[2] = tested on: patients with relapsed/refractory lymphoid malignancies; test: Phase 1 safety and tolerability: DLTs, MTD/RP2D, adverse events; type: in vivo, human
[3] = Alisertib pharmacokinetics in plasma; type: in vivo, human; details: Schedule I, vorinostat 200 mg, alisertib 30 mg, day 7, N=1
[4] = human, in vivo
clinical = details: human, in vivo; for AUC: AUC0-tau; for half-life: t½
follicular lymphoma = details: single agent, two phase 2 studies; cited from earlier work
[5] = previously published data; cited from earlier work

Compound: COc1cc(Nc2ncc3c(n2)-c2ccc(Cl)cc2C(c2c(F)cccc2OC)=NC3)ccc1C(=O)O [Alisertib]
- half-life ([1]; previous reports): 14.9 h
- apparent clearance ([1]; previously published population estimate): 4.25 L/h
- MTD of the combination, alisertib dose ([2]; BID, with 200 mg vorinostat BID, intermittent dosing Schedule II): 20 mg
- recommended phase 2 dose (RP2D) of the combination, alisertib dose ([2]; bid, intermittent schedule): 20 mg
- Cl/F [3]: 1.68 L/h

Compound: O=C(CCCCCCC(=O)Nc1ccccc1)NO [Vorinostat]
- t½ ([4]; 30 mg): 2.38 (0.97) h
- AUC0-tau ([4]; 200 mg): 1.10 (0.44) μg/mL•h
- AUC (clinical; 20 mg): 1030 ng·h/mL
- Cmax (clinical; 20 mg): 318 ng/mL
- Tmax (clinical; 20 mg): 2.25 h
- half-life (clinical; 20 mg): 2.16 h
- AUC (clinical; 30 mg): 1850 ng·h/mL
- Cmax (clinical; 30 mg): 560 ng/mL
- Tmax (clinical; 30 mg): 2.42 h
- AUC (clinical; 40 mg): 956 ng·h/mL
- Cmax (clinical; 40 mg): 335 ng/mL
- Tmax (clinical; 40 mg): 0.98 h
- half-life (clinical; 40 mg): 2.31 h
- AUC (clinical; 200 mg): 1030 ng·h/mL
- Cmax (clinical; 200 mg): 391 ng/mL
- half-life (clinical; 200 mg): 2.19 h
- half-life (clinical): 2.3 h
- MTD of the combination, vorinostat dose ([2]; BID, with 20 mg alisertib BID, intermittent dosing Schedule II): 200 mg
- recommended phase 2 dose (RP2D) of the combination, vorinostat dose ([2]; bid, intermittent schedule): 200 mg
- overall response rate (follicular lymphoma): 47-49%
- clearance [5]: 271 L/h
